Peptide text beside a SMILES is read from it.
Tests used:
HT-22 cells [1] = assay: Oxidative stress (H2O2) model in cultured HT-22 cells (MTT test); assay type: cell-based, mouse; details: added 24 hours prior to the stress exposure, 10^−8 M to 10^−5 M
Experimental: To induce an oxidative stress, the cells were placed in a growth medium containing 5% FBS, then a freshly prepared H2O2 solution was added to a final concentration of 1.5 mM and incubated for 30 min at 37° C. and 5% CO2. Thereafter, the medium was replaced with a new one and the cells were cultured for 4 h under the same conditions.
The determination of cell viability was carried out by MTT test. […] At the end of an experiment the growth medium was replaced with an MTT solution (0.5 mg/ml) and incubated for 30 min at 37° C. and 5% CO2. The MTT solution was then removed from the wells and DMSO was added to dissolve the formazan precipitate. Then the optical density was measured using a Multiscan (Thermo) spectrophotometer at a wavelength of 600 nm.

Balb/c mice = assay: Behavioral despair test according to Porsolt; assay type: in vivo, mouse
Experimental: In order to detect a potential antidepressant activity of the peptide BDNF mimetics, the behavioral despair test was used in the original version (Porsolt R. D., Anton G., Blavet N., Jalfre M. Behavioral despair in rats: a new model sensitive to antidepressants. European Journal of Pharmacology, 1978, 47, 379-391).
For these experiments, male Balb/c mice weighing 20-22 g were used. On day 1, the animals were placed in a narrow vessel filled with water at 22° C. for 10 min. 60 min later a test compound was administered intraperitoneally (GSB-106 at 1 mg/kg, GBK-108 and GBK-201 at 0.01, 0.1, 1.0, 10.0 mg/kg). 24 hours later the animals were placed again in the same conditions to record the retention time of the characteristic immobile posture (abandoning any active defensive and exploratory behavior) for a 5 min test period. Imipramine was administered 60 min prior to the 5 min test period (on day 2). The control groups were treated with distilled water. Each experimental group comprised at least 6 mice.

HT-22 neuronal cell line = assay: Viability of HT-22 neuronal cell line without damaging factors (MTT test); assay type: cell-based, mouse; details: FIG. 1.1, different molar concentrations
Experimental: The rat adrenal […] pheochromocytoma cell line PC12 was obtained from the Cell Culture Museum, RAN Institute of Molecular Genetics. The immortalized mouse hippocampal cell line HT-22 was a gift from Prof. F. Viegant, Utrecht University, the Netherlands.
The cells were grown in DMEM medium containing 5% FBS and 2 mM L-glutamine. The cells were incubated at 37° C. and 5% CO2. The growth medium was changed at 24 hours after inoculation and every 3 days thereafter. The cells were re-plated every week into culture flasks with a total area of 75 cm^2.
All types of cells were plated in DMEM medium.

HT-22 cells [2] = details: added 24 hours prior to glutamate
Experimental: The determination of cell viability was carried out by MTT test. MTT is a water soluble tetrazolium salt of yellow color which readily permeates cells. In living cells, MTT is converted into water insoluble formazan crystals of violet color. At the end of an experiment the growth medium was replaced with an MTT solution (0.5 mg/ml) and incubated for 30 min at 37° C. and 5% CO2. The MTT solution was then removed from the wells and DMSO was added to dissolve the formazan precipitate. Then the optical density was measured using a Multiscan (Thermo) spectrophotometer at a wavelength of 600 nm.

SMILES: CC(=O)N[C@@H](CC(=O)O)C(=O)N[C@@H](CO)C(N)=O [GBK-108, N-acetyl-aspartyl-serine amide] (Ac-Asp-Ser-NH2)
- neuronal survival under oxidative stress (HT-22 cells [1]): improved the neuronal survival
- immobility time (Balb/c mice; GBK-108 at 10 mg/kg i.p., 24 h before the test): increased the immobility time

SMILES: NCCCC[C@H](NC(=O)[C@H](CCC(=O)O)NC(=O)CCC(=O)O)C(=O)NCCCCNC(=O)[C@H](CCCCN)NC(=O)[C@H](CCC(=O)O)NC(=O)CCC(=O)O [GK-2c, bis-(N-monosuccinyl-glutamyl-lysine)tetramethylenediamide]
- viability of HT-22 cells (HT-22 neuronal cell line): reduced the viability

SMILES: NCCCC[C@H](NC(=O)[C@H](CO)NC(=O)CCC(=O)O)C(=O)NCCCCCCNC(=O)[C@H](CCCCN)NC(=O)[C@H](CO)NC(=O)CCC(=O)O [GSB-106, bis-(N-monosuccinyl-seryl-lysine) hexamethylenediamide]
- neuronal survival under oxidative stress (HT-22 cells [1]): improved the neuronal survival
- protective effect against glutamate cytotoxicity (HT-22 cells [2]): protective effect
- immobility time (Balb/c mice; GSB-106 1 mg/kg i.p., 24 h before the test): reducing the immobility time

SMILES: CN(C)CCCN1c2ccccc2CCc2ccccc21 [imipramine, Imipramine, reference compound]
- immobility time (Balb/c mice; imipramine 60 min prior to the 5 min test): reducing the immobility time

Source: patent publication US9683014B2, “Dipeptide mimetics of NGF and BDNF neurotrophins” (UCHREZHDENIE ROSSIISKOI AKADEMII MEDITSYNSKIKH NAUK …, priority 2009, dated 2017)
